One test relates to LoVo cells. The test can be described thus: LoVo cell proliferation experiment (CellTiter-Glo, intracellular ATP). Format: cell-based. The settings on record: LoVo human colon cancer cells, 4 days, read-out: IC50 for inhibition of LoVo cell proliferation. The procedure: The following method is used to evaluate the inhibitory effect of the compounds of the present invention on LoVo cell proliferation according to the IC50 values by means of detecting the intracellular ATP content. The experimental method is briefly described as follows:
1. LoVo, human colon cancer tumor cells (Co-bioer, CBP60032)
LoVo cells were cultured in F-12K medium containing 10% FBS and passaged 2 to 3 times a week at a split ratio of 1:3 or 1:5. During passage, the cells were trypsinized and transferred to a centrifuge tube. The tube was centrifuged at 1000 rpm for 5 minutes, the supernatant medium was discarded, and fresh medium was added to resuspend the cells. 100 μL of cell suspension at a density of 1.5×10^4 cells/mL was added to a 96-well cell culture plate, and 100 μL of complete medium only was added to the periphery wells of the 96-well plate. The culture plate was incubated in an incubator for 24 hours (37° C., 5% CO2).
The sample to be tested was diluted to 1 mM with DMSO, diluted 3-fold serially to 8 concentrations, and prepared to 200× dilution with cell culture medium. Blank and control wells were set. 5 μL of the solution containing the compound to be tested prepared in gradient concentrations was added to 95 μL of fresh medium. 100 μL of 1× culture medium containing the compound was added to the culture plate. The culture plate was incubated in an incubator for 4 days (37° C., 5% CO2). 50 μL of CellTiter-Glo reagent was added to each well of the 96-well cell culture plate, and the plate was placed at room temperature in the dark for 5-10 min. The chemiluminescent signal values were read in PHERAstar, and data were processed using GraphPad software.
The inhibitory effect of the compounds of the present invention on LoVo cell proliferation can be determined by the test described above, and the measured IC50 values are shown in Table 2.

The subject of another test is SNU-601 cells. The test can be described thus: SNU-601 cell proliferation experiment (CellTiter-Glo, intracellular ATP). Format: cell-based. To be noted: SNU-601 human gastric cancer cells, 5 days, read-out: IC50 for inhibition of SNU-601 cell proliferation. The method, boiled down: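 Human gastric cancer cells in RPMI 1640/10% FBS plated and settled 24 h before adding compounds in a 10-point 3-fold series (2 mM DMSO top stock). Exposure 5 days at 37 °C, 5% CO2. Viability by CellTiter-Glo luminescence (ATP); IC50 from the curves.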

The next test deals with ATR enzyme (Homo sapiens (Human), UniProt Q13535). The test can be described thus: Inhibitory effect on ATR enzyme (HTRF, phospho-P53). Format: biochemical. The settings on record: 90 minutes incubation, 150 nM ATP final; read-out: IC50 for ATR enzyme inhibition. In short, it runs like this:
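Recombinant ATR phosphorylating GST-tagged P53 with 150 nM ATP final (40 nM final P53), 10-point compound series from 2985.0 to 0.15 nM, 0.498% DMSO, 90 min at room temperature. Detection with anti-phospho-p53-Eu/anti-GST-d2 overnight at 4° C in dark; HTRF 665/612 ratio used to derive IC50.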
In general terms: In TR-FRET formats the signal depends on donor and acceptor labels being close together.

pIC50: −log10 of the molar value. Like-named read-outs stand apart in the source and are kept apart here. A value given as a limit tells only on which side of the number the result lay.

Chain of ATR enzyme (Q13535 whole entry): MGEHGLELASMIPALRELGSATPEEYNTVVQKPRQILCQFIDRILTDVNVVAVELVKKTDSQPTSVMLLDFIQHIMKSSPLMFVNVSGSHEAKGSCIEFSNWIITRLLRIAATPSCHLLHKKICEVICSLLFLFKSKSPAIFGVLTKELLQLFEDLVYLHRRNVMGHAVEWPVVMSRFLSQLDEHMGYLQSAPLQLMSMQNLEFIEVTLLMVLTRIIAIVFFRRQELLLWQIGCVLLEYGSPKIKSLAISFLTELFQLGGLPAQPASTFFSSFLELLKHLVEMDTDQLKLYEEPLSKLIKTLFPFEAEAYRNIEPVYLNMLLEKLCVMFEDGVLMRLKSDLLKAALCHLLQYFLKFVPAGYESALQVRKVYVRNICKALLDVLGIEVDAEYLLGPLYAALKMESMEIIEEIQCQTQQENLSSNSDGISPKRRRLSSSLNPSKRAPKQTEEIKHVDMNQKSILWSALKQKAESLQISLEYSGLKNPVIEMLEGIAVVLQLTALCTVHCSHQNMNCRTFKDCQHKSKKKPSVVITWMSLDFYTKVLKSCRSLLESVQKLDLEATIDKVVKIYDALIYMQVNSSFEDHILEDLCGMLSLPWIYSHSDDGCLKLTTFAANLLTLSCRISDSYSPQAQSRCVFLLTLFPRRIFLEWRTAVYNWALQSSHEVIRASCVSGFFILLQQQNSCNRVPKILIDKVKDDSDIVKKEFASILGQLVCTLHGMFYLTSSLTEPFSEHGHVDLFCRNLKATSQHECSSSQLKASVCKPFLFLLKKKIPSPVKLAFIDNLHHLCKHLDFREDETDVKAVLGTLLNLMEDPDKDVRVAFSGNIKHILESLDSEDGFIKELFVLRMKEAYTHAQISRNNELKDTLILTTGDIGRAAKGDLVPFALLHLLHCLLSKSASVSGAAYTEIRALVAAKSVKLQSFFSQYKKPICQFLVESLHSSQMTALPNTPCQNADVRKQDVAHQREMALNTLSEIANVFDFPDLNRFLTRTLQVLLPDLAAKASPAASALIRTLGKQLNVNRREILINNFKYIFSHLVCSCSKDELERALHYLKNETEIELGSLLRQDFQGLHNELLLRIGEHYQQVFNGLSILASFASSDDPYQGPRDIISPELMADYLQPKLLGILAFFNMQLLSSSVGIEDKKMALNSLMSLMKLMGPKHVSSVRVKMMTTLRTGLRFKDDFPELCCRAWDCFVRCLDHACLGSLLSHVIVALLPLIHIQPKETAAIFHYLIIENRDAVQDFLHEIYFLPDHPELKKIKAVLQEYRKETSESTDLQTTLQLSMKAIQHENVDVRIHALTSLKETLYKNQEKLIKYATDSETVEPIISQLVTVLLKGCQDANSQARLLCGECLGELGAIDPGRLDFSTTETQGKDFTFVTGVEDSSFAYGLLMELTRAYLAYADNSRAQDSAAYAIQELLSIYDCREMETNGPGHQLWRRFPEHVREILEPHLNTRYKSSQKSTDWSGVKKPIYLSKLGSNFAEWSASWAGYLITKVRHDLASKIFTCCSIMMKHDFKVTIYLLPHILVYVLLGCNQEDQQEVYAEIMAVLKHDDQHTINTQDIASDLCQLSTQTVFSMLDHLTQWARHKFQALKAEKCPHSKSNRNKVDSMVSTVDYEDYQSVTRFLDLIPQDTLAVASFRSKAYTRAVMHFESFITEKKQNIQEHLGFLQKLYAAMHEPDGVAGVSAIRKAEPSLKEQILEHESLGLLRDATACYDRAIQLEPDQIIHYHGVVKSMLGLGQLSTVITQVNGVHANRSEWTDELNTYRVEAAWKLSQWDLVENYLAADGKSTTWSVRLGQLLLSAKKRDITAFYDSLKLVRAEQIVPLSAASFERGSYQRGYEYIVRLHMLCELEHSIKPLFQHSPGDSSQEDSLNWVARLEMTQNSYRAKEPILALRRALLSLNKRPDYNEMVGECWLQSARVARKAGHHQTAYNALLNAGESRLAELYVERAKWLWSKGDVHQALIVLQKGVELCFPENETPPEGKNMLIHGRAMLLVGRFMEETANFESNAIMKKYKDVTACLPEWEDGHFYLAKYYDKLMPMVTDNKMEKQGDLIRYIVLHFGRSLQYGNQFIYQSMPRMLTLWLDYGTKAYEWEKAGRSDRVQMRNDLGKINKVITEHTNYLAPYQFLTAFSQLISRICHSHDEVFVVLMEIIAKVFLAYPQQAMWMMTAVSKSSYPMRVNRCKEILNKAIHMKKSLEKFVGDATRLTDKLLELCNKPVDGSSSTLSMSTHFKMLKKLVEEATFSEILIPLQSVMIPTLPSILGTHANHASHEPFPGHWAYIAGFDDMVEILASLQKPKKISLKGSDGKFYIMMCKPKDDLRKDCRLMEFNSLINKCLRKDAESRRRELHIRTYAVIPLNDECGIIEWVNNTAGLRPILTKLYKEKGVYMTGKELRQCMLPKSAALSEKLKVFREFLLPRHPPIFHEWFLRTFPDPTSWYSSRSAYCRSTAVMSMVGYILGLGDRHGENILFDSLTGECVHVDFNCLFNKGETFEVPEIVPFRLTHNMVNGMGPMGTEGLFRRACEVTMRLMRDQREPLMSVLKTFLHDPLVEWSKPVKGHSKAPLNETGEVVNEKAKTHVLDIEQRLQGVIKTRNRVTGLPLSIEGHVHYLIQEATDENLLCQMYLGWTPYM
Chain of ATR enzyme (Q8WXE1 whole entry partner): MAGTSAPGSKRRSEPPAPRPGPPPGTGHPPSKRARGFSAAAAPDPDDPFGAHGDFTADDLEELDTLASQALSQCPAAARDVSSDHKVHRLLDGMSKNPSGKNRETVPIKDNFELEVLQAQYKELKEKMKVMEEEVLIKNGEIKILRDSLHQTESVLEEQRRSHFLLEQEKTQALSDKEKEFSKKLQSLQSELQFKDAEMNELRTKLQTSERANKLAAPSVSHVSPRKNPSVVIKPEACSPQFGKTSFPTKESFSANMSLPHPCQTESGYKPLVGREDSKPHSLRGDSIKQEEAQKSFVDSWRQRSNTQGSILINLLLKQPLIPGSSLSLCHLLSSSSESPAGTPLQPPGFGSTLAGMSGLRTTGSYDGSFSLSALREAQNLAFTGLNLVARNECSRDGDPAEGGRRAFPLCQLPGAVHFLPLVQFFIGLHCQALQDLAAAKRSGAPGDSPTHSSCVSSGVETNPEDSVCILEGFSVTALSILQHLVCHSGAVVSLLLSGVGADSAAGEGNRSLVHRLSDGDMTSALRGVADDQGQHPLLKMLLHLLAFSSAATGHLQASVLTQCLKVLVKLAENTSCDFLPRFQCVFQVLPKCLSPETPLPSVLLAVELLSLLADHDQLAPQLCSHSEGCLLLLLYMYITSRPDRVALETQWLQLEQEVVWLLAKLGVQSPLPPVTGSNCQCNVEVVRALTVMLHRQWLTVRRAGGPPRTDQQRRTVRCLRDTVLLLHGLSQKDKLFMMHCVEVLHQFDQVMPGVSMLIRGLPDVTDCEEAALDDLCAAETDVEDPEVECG

With `C[C@@H]1COCCN1c1cc(C2(O)CCC3(CC2)CO3)c2cnn(-c3cc[nH]n3)c2n1` (stereo partly drawn) [Compound 2, (R)-6-(6-(3-methylmorpholinyl)-1-(1H-pyrazol-3-yl)-1H-pyrazole[3,4-b]pyridin-4-yl)-1-oxaspiro[2.5]octan-6-ol], the pIC50 with LoVo cells (96 h) is 7.00 to 7.70.
Turning to `COCC#Cc1cc(N2CCOC[C@H]2C)nc2c1cnn2-c1cc[nH]n1` [Compound 5, (R)-4-(4-(3-methoxypropyl-1-alkynyl)-1-(1H-pyrazol-3-yl)-1H-pyrazole[3,4-b]pyridin-6-yl)-3-methylmorpholine], the pIC50 with LoVo cells (96 h) was at least 7.70.
For the compound `C[C@@H]1COCCN1c1cc(-c2ccc(N3CCCCC3=O)cc2)c2cnn(-c3cc[nH]n3)c2n1` [Compound 7, (R)-1-(4-(6-(3-methylmorpholinyl)-1-(1H-pyrazolyl-3-yl)-1H-pyrazolyl[3,4-b]pyridin-4-yl)phenyl)piperidin-2-one], the pIC50 in the test on SNU-601 cells (120 h) is 7.00 to 8.00; in the test with LoVo cells (96 h), 7.00 to 7.70.
Consider `C[C@@H]1COCCN1c1cc(C2CCCOC2)c2cnn(-c3cc[nH]n3)c2n1` (stereo partly drawn) [Compound 13, (3R)-4-(1-(1H-pyrazol-3-yl)-4-(tetrahydro-2H-pyran-3-yl)-1H-pyrazole[3,4-b]pyridin-6-yl)-3-methylmorpholine], for which the pIC50 in the test with LoVo cells (96 h) is 7.00 to 7.70.
With `C[C@@H]1COCCN1c1cc(-c2ccc(NC(=O)c3cccc(S(C)(=O)=O)c3)cc2)c2cnn(-c3cc[nH]n3)c2n1` [Example 145], the values for the pIC50 with SNU-601 cells (120 h) and in the test with LoVo cells (96 h) were 7.00 to 8.00 and 7.00 to 7.70, respectively.
As for `C#CC1CCC(O)(c2cc(N3CCOC[C@H]3C)nc3c2cnn3-c2cc[nH]n2)CC1` (stereo partly drawn) [Example 147, (R)-4-ethynyl-1-(6-(3-methylmorpholinyl)-1-(1H-pyrazolyl-3-yl)-1H-pyrazolyl[3,4-b]pyridin-4-yl)cyclohexanol], the values for the pIC50 in the test with SNU-601 cells (120 h), with LoVo cells (96 h) and at ATR enzyme were at least 8.00, at least 7.70 and at least 8.00, respectively.
In the case of `C[C@@H]1COCCN1c1cc(-c2ccc(NC(=O)c3ccncc3)cc2)c2cnn(-c3cc[nH]n3)c2n1` [Example 148], the values for the pIC50 in the test with SNU-601 cells, in the test with LoVo cells and on ATR enzyme were 7.00 to 8.00, 7.00 to 7.70 and at least 8.00, respectively.
Take `C[C@@H]1COCCN1c1cc(-c2ccc(NC(=O)c3cocn3)cc2)c2cnn(-c3cc[nH]n3)c2n1` [Example 164]: the pIC50 with SNU-601 cells is 7.00 to 8.00; in the test with LoVo cells it was 7.00 to 7.70; on ATR enzyme, at least 8.00.
In the case of `C[C@@H]1COCCN1c1cc(-c2ccc(N3CCCCCC3=O)cc2F)c2cnn(-c3cc[nH]n3)c2n1` [Example 197], the pIC50 in the test with SNU-601 cells (120 h) was 7.00 to 8.00; with LoVo cells (96 h) it was 7.00 to 7.70.
As for `C[C@@H]1COCCN1c1cc(-c2ccc(NC(=O)N3CCCC3)c(C#N)c2)c2cnn(-c3cc[nH]n3)c2n1` [Example 228], the pIC50 in the test with SNU-601 cells (120 h) was at least 8.00; with LoVo cells (96 h), 7.00 to 7.70; at ATR enzyme, at least 8.00.
On to `C[C@@H]1COCCN1c1cc(-c2ccc(NC(=O)c3cocn3)cc2F)c2cnn(-c3cc[nH]n3)c2n1` [Example 235], for which the values for the pIC50 in the test on SNU-601 cells (120 h), with LoVo cells (96 h) and at ATR enzyme were 7.00 to 8.00, 7.00 to 7.70 and at least 8.00, respectively.
The matching figures for `C[C@@H]1COCCN1c1cc(-c2ccc(N3CCCCS3(=O)=O)cc2F)c2cnn(-c3cc[nH]n3)c2n1` [Example 239]: 7.00 to 8.00, 7.00 to 7.70 and at least 8.00.
The matching figures for `C[C@@H]1COCCN1c1cc(-c2c(F)cc(N3CC4CCC(O4)C3=O)cc2F)c2cnn(-c3cc[nH]n3)c2n1` (some centres unmarked) [Example 261]: 7.00 to 8.00, 7.00 to 7.70 and at least 8.00.
For the compound `C[C@@H]1COCCN1c1cc(-c2ccc(N3C(=O)C4C=CC3C4)cc2F)c2cnn(-c3cc[nH]n3)c2n1` (some centres unmarked) [Example 262], the pIC50 in the test on SNU-601 cells (120 h) is 7.00 to 8.00; at ATR enzyme it was at least 8.00.
The matching figures for `C[C@@H]1COCCN1c1cc(-c2ccc(N3C(=O)C4CCC3C4)cc2F)c2cnn(-c3cc[nH]n3)c2n1` (some centres unmarked) [Example 263]: 7.00 to 8.00 and at least 8.00.
As for `C[C@@H]1COCCN1c1cc(-c2ccc(N3C(=O)C4CCC3CC4)cc2F)c2cnn(-c3cc[nH]n3)c2n1` [Example 264], the values for the pIC50 in the test on SNU-601 cells (120 h) and on ATR enzyme were 7.00 to 8.00 and at least 8.00, respectively.
The matching figures for `C[C@@H]1COCCN1c1cc(N2CC(NC(=O)C3CCC3)C2)c2cnn(-c3cc[nH]n3)c2n1` [Example 265]: 7.00 to 8.00 and 7.30 to 8.00.
Regarding `C[C@@H]1COCCN1c1cc(C2(O)CCC(C#N)CC2)c2cnn(-c3cc[nH]n3)c2n1` (some centres unmarked) [RP103, reference compound], the pIC50 with SNU-601 cells (120 h) was 7.00 to 8.00; with LoVo cells (96 h), 7.00 to 7.70; at ATR enzyme it was at least 8.00.
`C[C@@H]1COCCN1c1cc([C@]2(O)C[C@H]3CC[C@@H](C2)O3)c2cnn(-c3ccn[nH]3)c2n1` [RP3500, reference compound]: the pIC50 in the test with SNU-601 cells (120 h) was 7.00 to 8.00; in the test on LoVo cells (96 h) it was 7.00 to 7.70; on ATR enzyme, at least 8.00.

The record behind these values is patent US20250066350A1, “AROMATIC HETEROCYCLE-SUBSTITUTED COMPOUNDS, AND PREPARATION METHOD THEREFOR AND USE THEREOF” (Innovstone Therapeutics Limited, priority 2021, published 2025).
